Measured values: BindingDB's records for doi:10.1046/j.1472-8206.2002.00076.x (Shinshu University, 2002)
Side chains are listed from the residue outwards. Peptide text beside a SMILES is read from it. * marks the point of attachment. Nicotinoyl = O=C(c1cccnc1)*; Cbz = O=C(OCc1ccccc1)*

Columns and labels:
[1] = target: T1, Type-2 angiotensin II receptor (Rattus norvegicus, UniProt P35351)
T1 sequence (P35351 whole entry): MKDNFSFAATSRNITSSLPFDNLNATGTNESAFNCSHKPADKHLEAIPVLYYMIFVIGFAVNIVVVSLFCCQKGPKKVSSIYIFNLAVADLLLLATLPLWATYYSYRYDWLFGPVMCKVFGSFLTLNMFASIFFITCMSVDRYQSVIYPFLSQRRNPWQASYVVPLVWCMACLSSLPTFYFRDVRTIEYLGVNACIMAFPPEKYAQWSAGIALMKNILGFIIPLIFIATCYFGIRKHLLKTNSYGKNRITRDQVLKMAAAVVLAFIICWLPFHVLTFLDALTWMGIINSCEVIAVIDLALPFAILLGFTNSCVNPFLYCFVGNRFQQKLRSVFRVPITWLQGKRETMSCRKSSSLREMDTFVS

[2] = target: T2, Type-1 angiotensin II receptor A (Rattus norvegicus, UniProt P25095)
T2 sequence (P25095 whole entry): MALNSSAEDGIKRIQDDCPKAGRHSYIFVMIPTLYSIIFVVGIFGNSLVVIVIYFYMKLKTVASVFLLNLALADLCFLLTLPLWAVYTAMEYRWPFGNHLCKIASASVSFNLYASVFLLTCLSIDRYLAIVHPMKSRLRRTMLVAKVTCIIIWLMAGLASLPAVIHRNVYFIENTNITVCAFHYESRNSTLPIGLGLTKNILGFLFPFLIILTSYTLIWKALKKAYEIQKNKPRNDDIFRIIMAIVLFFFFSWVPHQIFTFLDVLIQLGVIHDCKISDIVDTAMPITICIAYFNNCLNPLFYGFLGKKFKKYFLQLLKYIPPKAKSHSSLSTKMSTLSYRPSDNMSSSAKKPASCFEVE

[3] = target: T3, Type-1 angiotensin II receptor (Homo sapiens, UniProt P30556)
T3 sequence (P30556 whole entry): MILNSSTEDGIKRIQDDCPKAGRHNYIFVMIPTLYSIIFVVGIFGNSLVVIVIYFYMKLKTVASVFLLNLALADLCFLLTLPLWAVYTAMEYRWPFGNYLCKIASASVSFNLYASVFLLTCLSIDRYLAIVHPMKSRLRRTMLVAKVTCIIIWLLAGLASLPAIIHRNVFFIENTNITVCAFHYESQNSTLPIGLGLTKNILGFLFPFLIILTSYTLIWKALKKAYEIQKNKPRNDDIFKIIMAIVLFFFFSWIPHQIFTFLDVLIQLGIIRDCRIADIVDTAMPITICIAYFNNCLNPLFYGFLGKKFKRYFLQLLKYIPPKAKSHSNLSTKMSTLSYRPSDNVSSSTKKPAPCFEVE

[4] = target: T4, Type-1 angiotensin II receptor B (Rattus norvegicus, UniProt P29089)
T4 sequence (P29089 whole entry): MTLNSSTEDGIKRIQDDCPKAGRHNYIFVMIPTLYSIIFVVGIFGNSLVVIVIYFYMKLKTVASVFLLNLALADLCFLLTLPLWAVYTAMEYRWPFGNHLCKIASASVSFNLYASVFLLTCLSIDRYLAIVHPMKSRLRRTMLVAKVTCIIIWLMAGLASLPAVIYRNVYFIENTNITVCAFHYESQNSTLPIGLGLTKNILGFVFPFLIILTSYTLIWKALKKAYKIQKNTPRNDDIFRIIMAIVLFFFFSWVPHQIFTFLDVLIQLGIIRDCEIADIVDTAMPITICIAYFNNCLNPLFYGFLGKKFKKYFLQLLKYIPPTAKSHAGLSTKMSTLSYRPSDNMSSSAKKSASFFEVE

Row | Compound | Ki [1] | Ki [2] | Ki [3] | Ki [4]
1 | CCCCc1nc(Cl)c(C(=O)O)n1Cc1ccc(-c2ccccc2-c2nn[nH]n2)cc1 [2-Butyl-5-chloro-3-[2'-(1H-tetrazol-5-yl)-biphenyl-4-ylmethyl]-3H-imidazole-4-carboxylic acid] | > 10000 nM | 0.57 nM |  | 
2 | CCc1nn(Cc2ccc(-c3ccccc3-c3nnn[nH]3)cc2)c(=NC(=O)C2=C(C(=O)O)CCC2)s1 [KRH-594] | 9360 nM | 1.02 nM | 1.24 nM | 0.67 nM
3 | CC[C@H](C)[C@H](NC(=O)[C@@H]1CCCN1C(=O)[C@H](Cc1c[nH]cn1)NC(=O)[C@H](CCCCNC(=O)[C@H](CCCN=C(N)N)NC(=O)OCc1ccccc1)NC(=O)[C@H](Cc1ccc(O)cc1)NC(=O)c1cccnc1)C(=O)O [NSC_123794] (Nicotinoyl-YK([Arg-Cbz])HPI-OH) | 0.37 nM |  |  | 
4 | CCOc1nc2cccc(C(=O)O)c2n1Cc1ccc(-c2ccccc2-c2nnn[nH]2)cc1 | > 10000 nM | 0.12 nM | 0.17 nM | 0.12 nM
